Test results reported in PubChem BioAssay AID1963826 (Molecular Pharmacology Branch, DTP, NCI, 2024).

Test system: 926638-142-R-J1-PDC complex spheroid viability
Experiment: Anticancer human tumor 926638-142-R-J1-PDC patient-derived endometrial carcinoma cell line growth inhibition [POLQ]
Conditions: for IC50: curve of first compound; for viability, T/C: stronger effect = lower value; active means viability on the fitted dose curve at most 10% of control; inactive means the rest
Outline: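 PDC + HUVEC + MSC complex spheroids; POLQ inhibitors ± partner drugs; top conc. at/near clinical Cmax, else 10 microM (SN-38 1 microM), half-log dilutions; 37 degrees C, 5% CO2.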

[1] = second compound 0.0316 µM, first compound 0.0316 µM
[2] = second compound 0.0316 µM, first compound 0.1 µM
[3] = second compound 0.0316 µM, first compound 0.316 µM
[4] = second compound 0.0316 µM, first compound 1 µM
[5] = second compound 0.1 µM, first compound 0.0316 µM
[6] = second compound 0.1 µM, first compound 0.1 µM
[7] = second compound 0.1 µM, first compound 0.316 µM
[8] = second compound 0.1 µM, first compound 1 µM
[9] = second compound 0.316 µM, first compound 0.0316 µM
[10] = second compound 0.316 µM, first compound 0.1 µM
[11] = second compound 0.316 µM, first compound 0.316 µM
[12] = second compound 0.316 µM, first compound 1 µM
[13] = second compound 1 µM, first compound 0.0316 µM
[14] = second compound 1 µM, first compound 0.1 µM
[15] = second compound 1 µM, first compound 0.316 µM
[16] = second compound 1 µM, first compound 1 µM
[17] = second compound 3.16 µM, first compound 0.0316 µM
[18] = second compound 3.16 µM, first compound 0.1 µM
[19] = second compound 3.16 µM, first compound 0.316 µM
[20] = second compound 3.16 µM, first compound 1 µM
[21] = second compound 10 µM, first compound 0.0316 µM
[22] = second compound 10 µM, first compound 0.1 µM
[23] = second compound 10 µM, first compound 0.316 µM
[24] = second compound 10 µM, first compound 1 µM
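Further: spheroids exposed to drugs for one week before readout.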
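Wherever viability, T/C is given: percent viability relative to DMSO vehicle control wells set as 100%.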

C=CC(=O)N1CCN(c2nc(=O)n(-c3c(C)ccnc3C(C)C)c3nc(-c4c(O)cccc4F)c(F)cc23)C(C)C1 (centres undefined) + Cc1cccc(N(C)C(=O)C2C(O)CCN2c2nc(C)cc(C(F)(F)F)c2C#N)c1
6590 nM: IC50 (second compound 3.16 µM)
> 10000 nM: IC50 (second compound 0.0316 µM) | IC50 (second compound 0.1 µM) | IC50 (second compound 0.316 µM) | IC50 (second compound 1 µM) | IC50 (second compound 10 µM)
inactive: viability, T/C [1] 84.5% | viability, T/C [2] 78% | viability, T/C [3] 67.2% | viability, T/C [4] 76.1% | viability, T/C (second compound 0.0316 µM, first compound 3.16 µM) 66% | viability, T/C (second compound 0.0316 µM, first compound 10 µM) 59.1% | viability, T/C [5] 82.8% | viability, T/C [6] 78.7% | viability, T/C [7] 94% | viability, T/C [8] 76.6% | viability, T/C (second compound 0.1 µM, first compound 3.16 µM) 70.8% | viability, T/C (second compound 0.1 µM, first compound 10 µM) 65.5% | viability, T/C [9] 97.4% | viability, T/C [10] 90.3% | viability, T/C [11] 91.5% | viability, T/C [12] 74.2% | viability, T/C (second compound 0.316 µM, first compound 3.16 µM) 70% | viability, T/C (second compound 0.316 µM, first compound 10 µM) 55.6% | viability, T/C [13] 74.8% | viability, T/C [14] 84.7% | viability, T/C [15] 79.2% | viability, T/C [16] 69.9% | viability, T/C (second compound 1 µM, first compound 3.16 µM) 72.7% | viability, T/C (second compound 1 µM, first compound 10 µM) 49.6% | viability, T/C [17] 91.8% | viability, T/C [18] 82.7% | viability, T/C [19] 84.7% | viability, T/C [20] 86% | viability, T/C (second compound 3.16 µM, first compound 3.16 µM) 74.1% | viability, T/C (second compound 3.16 µM, first compound 10 µM) 36.1% | viability, T/C [21] 90.7% | viability, T/C [22] 80.8% | viability, T/C [23] 94.9% | viability, T/C [24] 77% | viability, T/C (second compound 10 µM, first compound 3.16 µM) 78% | viability, T/C (second compound 10 µM, first compound 10 µM) 52.9%

CCc1c2c(nc3ccc(O)cc13)-c1cc3c(c(=O)n1C2)COC(=O)[C@]3(O)CC + Cc1cccc(N(C)C(=O)C2C(O)CCN2c2nc(C)cc(C(F)(F)F)c2C#N)c1
inactive: viability, T/C (second compound 0.0316 µM, first compound 0.00316 µM) 55.6% | viability, T/C (second compound 0.0316 µM, first compound 0.01 µM) 43.5% | viability, T/C [1] 38% | viability, T/C [2] 17.1% | viability, T/C [3] 11.1% | viability, T/C (second compound 0.1 µM, first compound 0.00316 µM) 75.3% | viability, T/C (second compound 0.1 µM, first compound 0.01 µM) 51.9% | viability, T/C [5] 35.1% | viability, T/C [6] 17.8% | viability, T/C (second compound 0.316 µM, first compound 0.00316 µM) 69.8% | viability, T/C (second compound 0.316 µM, first compound 0.01 µM) 52.8% | viability, T/C [9] 35.6% | viability, T/C [10] 19.3% | viability, T/C [11] 12.3% | viability, T/C (second compound 1 µM, first compound 0.00316 µM) 69.6% | viability, T/C (second compound 1 µM, first compound 0.01 µM) 50.9% | viability, T/C [13] 29.8% | viability, T/C [14] 17% | viability, T/C [15] 13.9% | viability, T/C (second compound 3.16 µM, first compound 0.00316 µM) 62.8% | viability, T/C (second compound 3.16 µM, first compound 0.01 µM) 54% | viability, T/C [17] 35.1% | viability, T/C [18] 21.1% | viability, T/C [19] 9.95% | viability, T/C (second compound 10 µM, first compound 0.00316 µM) 69.4% | viability, T/C (second compound 10 µM, first compound 0.01 µM) 50.5% | viability, T/C [21] 34.6% | viability, T/C [22] 22.5% | viability, T/C [23] 10.4%
10.7 nM: IC50 (second compound 10 µM)
11.9 nM: IC50 (second compound 0.1 µM)
active: viability, T/C [4] 5.47% | viability, T/C [7] 9.35% | viability, T/C [8] 4.26% | viability, T/C [12] 4.42% | viability, T/C [16] 4.44% | viability, T/C [20] 5.61% | viability, T/C [24] 4.3%
6.18 nM: IC50 (second compound 0.0316 µM)
12.2 nM: IC50 (second compound 3.16 µM)
12 nM: IC50 (second compound 0.316 µM)
9.83 nM: IC50 (second compound 1 µM)
